The source of these data is patent US20260158002A1, “APPLICATION OF COMPOSITION CONTAINING EDARAVONE AND DEXBORNEOL IN IMPROVING OR TREATING COGNITIVE IMPAIRMENT” (NEURODAWN PHARMACEUTICAL CO., LTD., priority 2021, published 2026).

One data set has as its system ICV-STZ model rats. The following applies: cited from earlier work.
A further data set concerns SH-SY5Y-APP695. Particulars: 0.3 to 3 μM; cited from earlier work.
In data set [1] the test system is 5×FAD transgenic mice. The data set is described as follows: Brain slice electrophysiology test (hippocampal LTP) in 5×FAD transgenic mice. The following applies: brain slices after 16 weeks of administration; edaravone 6 mg/kg or composition 7.5 mg/kg i.p. once daily. The data set is classed as in vivo, mouse. As for the experimental part: (§1) In the experiment, the animals were divided into 4 groups. Administration was performed on the mice in each group from 8 weeks of age. After 16 weeks of continuous daily administration, water maze and Y maze behavioral tests were performed. After the behavioral tests were completed, the animals were sacrificed, and brain slice electrophysiology and AD pathology within the brain were tested, including the test of Aβ plaques, biomarkers such as GFAP and Iba-1, p-Tau, etc.
Electrophysiological recording was performed after the behavioral test of mice was completed. After anesthesia, all mice were euthanized, the brain tissues were rapidly collected and stored in 4° C. oxygenated (95% O2/5% CO2) artificial cerebrospinal fluid (ACSF) (75 mM sucrose, 87 mM NaCl, 2.5 mM KCl), 1.25 mM NaH2PO4, 21.4 mM NaHCO3, 0.5 mM CaCl2, 7 mM MgCl2 and 20 mM glucose. Hippocampal slices were cut by a vibrating knife in 4° C. oxygenated ACSF, and in 32° C. oxygenated ACSF. Next, the slices were incubated at room temperature for 1 hour before recording. Hippocampal LTP was induced by two theta burst stimulations (TBS). Data acquisition and analysis were performed using Clampex and Clampfit 8.2 (Molecular Devices).
(§2) Data were expressed as Mean±SEM. […]

In data set [2] the test system is rat model in which oligomerized Aβ1-40 is injected into the hippocampal dentate gyrus. Particulars: edaravone 5 mg/kg at the same site with intracerebral Aβ injection; cited from earlier work.
Another data set has as its system primary cortical neurons. In words: Aβ1-42-induced primary cortical neuronal injury test (Luminescent Cell Viability Assay). In kind it is cell-based, rat. Particulars: single agent, pre-incubation 30 min before oligomerized Aβ1-42 50 μM, 24 h; edaravone 3.7 to 100 μM, dexborneol 1.2 to 100 μM; vs DMSO group. How it is done:
A SD pregnant rat at 18 days of pregnancy was sacrificed by cervical dislocation, the uteruses of the rat were dissected, the brain of E18 fetal rat was taken out, the cerebral cortical tissue of the fetal rat was isolated into an ice-cold DMEM, the meninge and blood vessels were removed from the cortical tissue under a dissecting microscope, the cortical tissue was transferred to an ice-cold DMEM and minced (about 1 mm^3), and digested with trypsin at 37° C. for 10 min, the digestion was terminated with FBS, a Pasteur pipette was used to perform gentle pipetting and dispersing, and screening was then performed using a 200-mesh sieve. […] The cells were counted by a hemocytometer, diluted to 5×10^5 cells/ml with a complete medium, and seeded in a 96-well plate coated with PDL (100 μL/well) for culture. […]
The medium of the in vitro matured primary neurons was replaced with a complete medium containing different concentrations (1.2, 3.7, 11.1, 33.3, 100.0 μM) of edaravone (E), dexborneol (B) or an edaravone and dexborneol composition (EB), after incubation at 37° C. for 30 min, oligomerized Aβ1-42 (final concentration of 50 μM) was added, the culture was continued for 24 h, and the neuronal viability was tested. […] LUMbackground is the background reading of the cell-free medium well into which Luminescent Cell Viability Assay kit is added. […]

Data set [3] has as its system 5×FAD transgenic mice. The data set is described as follows: Y maze test in 5×FAD transgenic mice. The data set is classed as in vivo, mouse. The following applies: 5×FAD mice; edaravone 6 mg/kg or composition 7.5 mg/kg i.p. once daily for 16 weeks. As for the experimental part:
as §1
5×FAD: edaravone group: ten 5×FAD mice were given edaravone ( ? ®) 6 mg/kg via i.p. at a dose of 10.0 mL/kg once daily.
5×FAD: composition group: ten 5×FAD mice were given 7.5 mg/kg edaravone and dexborneol concentrated solution for injection ( ? ®) (edaravone:dexborneol=4:1, containing 6 mg/kg edaravone and 1.5 mg/kg dexborneol) at a dose of 10.0 ml/kg once daily. […]
Testing: After 1 h of training, the baffle was removed, the channel of the Y maze was wiped with alcohol to remove the odor of the previous mouse, the mouse to be tested was placed in the same position for 5 min and video recording was performed, and the number of times the mouse entered the newly opened arm as a percentage of the total number of times it entered the three arms was recorded in the test.
as §2

The subject of data set [4] is SH-SY5Y and primary cortical neurons. Particulars: cited from earlier work.
For data set [5], the system named is primary hippocampal neurons. The following applies: cited from earlier work.
The conditions of data set [6]: mice; cited from earlier work.

Consider `CC1=NN(c2ccccc2)C(=O)C1` [edaravone, 3-methyl-1-phenyl-2-pyrazolin-5-one], for which the “spatial learning and memory (Morris water maze) and non-spatial long-term memory (step-down passive avoidance)” value in the data set with ICV-STZ model rats (intraperitoneal 9 mg/kg/day for 14 consecutive days) is “can significantly improve the spatial learning and memory”. For the same compound, the “cognitive function in water maze test and passive avoidance test” value in the data set on ICV-STZ model rats (oral 1, 3 and 10 mg/kg/day for 28 consecutive days) was “can also improve the cognitive function of ICV-STZ rats in water maze test and passive avoidance test”. Moreover, in the data set on SH-SY5Y-APP695, the “BACE1 expression, cleavage of APP and Aβ production” value is “capable of reducing BACE1 expression, cleavage of APP and Aβ production in a concentration-dependent manner”; the “GSK-3β activation and tau phosphorylation” value was “inhibiting GSK-3β activation and reducing tau phosphorylation”. The “restoration of hippocampal LTP, vs 5×FAD mouse group” value in the data set with 5×FAD transgenic mice [1] is reported as “no obvious restoration effect”. Also, the “spatial learning and memory in water maze” value in data set [2] is “can significantly improve the spatial learning and memory of rats in water maze”. In addition, in the data set with primary cortical neurons, the “inhibiting Aβ-induced neurotoxicity, increasing the cell viability” value is “capable of inhibiting Aβ-induced neurotoxicity in a concentration-dependent manner”. Besides, the “number of times the mouse entered the newly opened arm in Y maze, vs solvent control” value in the data set on 5×FAD transgenic mice [3] is “could significantly increase the number of times the mouse entered the newly opened arm”. In addition, the “neurotoxicity of Aβ1-42” value in [4] was “capable of reducing the neurotoxicity of Aβ1-42 to SH-SY5Y and primary cortical neurons”. The “H2O2- and glutamate-induced death of primary hippocampal neurons” value in data set [5] is “capable of reducing H2O2— and glutamate-induced death of primary hippocampal neurons”. In addition, the oral bioavailability in data set [6] is 38%.
